Molecules are shown by their SMILES. Peptide text beside a SMILES is read from it. * marks the point of attachment. Cbz = O=C(OCc1ccccc1)*

Data set [1] has as its system L. infantum promastigote cells. As to the kind of experiment: Mitochondrial membrane potential (Rhodamine 123, flow cytometry). It counts as cell-based, Leishmania infantum. As for the experimental part:
To evaluate the effects of compounds on the mitochondrial membrane potential (ΔΨm) of Leishmania infantum, the cationic probe Rhodamine 123 (Rod 123) was used through quantitative flow cytometry analysis. […] After incubation, cells were centrifuged at 3000× g for 5 min, and supernatants discarded. […] Hydrogen peroxide (H2O2) at 1 μM was used as positive control, previously described in the literature as an inducer of mitochondrial potential loss. Cells were analyzed by flow cytometry on the FACSCalibur equipment (Becton & Dickinson, San José, CA, USA), with excitation at 488 nm and detection at 505/534 nm. Fifty thousand events per sample were acquired. Data were expressed as percentage of cells stained with Rhodamine 123 for each tested condition. Fluorescence variation was quantified by Variation Index (VI), calculated by the equation: VI = (MT − MC)/MC, where MT corresponds to the median fluorescence of treated cells and MC to the median of control cells (untreated).
(A flow cytometer gives signals particle by particle.)

The test system of data set [2] is Leishmania infantum promastigote forms (MHOM/BR/BH46). As to the kind of experiment: In vitro leishmanicidal activity against promastigotes (Neubauer chamber counting). It is filed as cell-based. As to conditions: for IC50 / inhibition at 20 µM: Leishmania infantum; for IC50: 72 h, L. infantum promastigotes, linear regression; for inhibition at 20 µM: lowest concentration tested in the promastigote series (20–400 µM). As for the experimental part:
For this study, the Leishmania infantum strain MHOM/BR/BH46 was used. It was maintained by cryopreservation in liquid nitrogen, using a preservation solution containing 10% dimethyl sulfoxide (DMSO) and 90% fetal bovine serum (FBS). For the experiments, the strain was reactivated and maintained in continuous culture in modified Schneider’s Drosophila medium, supplemented with 10% heat-inactivated fetal bovine serum (FBS), at a temperature of 26 °C, with subcultures performed every 72 h. The promastigote form was used for the in vitro assays, with growth observed and monitored through parasite counting using a Neubauer chamber (iNCYTO CChip DHC-N01, Cheonan-Si, Republic of Korea).
The in vitro leishmanicidal activity of compounds LT-70, LT-73, LT-75, LT-89, and amphotericin B was determined as described by Aliança et al., with adaptations. Promastigote forms of L. infantum (MHOM/BR/BH46) were maintained in Schneider’s medium supplemented with 10% fetal bovine serum (FBS), incubated at 26 °C. For experiments, parasites were subcultured and grown for 72 h until reaching stationary phase. Subsequently, they were adjusted to a concentration of 1 × 10^6 parasites/mL. Cultures were then incubated in the presence of the tested compounds (20–400 µM) and Amphotericin B was tested from 0.01 to 1.0 µM in preliminary range-finding assays, confirming an IC50 of 0.04 µM, both prepared in DMSO (final DMSO concentration < 1%), as well as a control containing only the diluent. Analyses were performed in technical triplicate and biological duplicate. Cultures were maintained at 26 °C for 72 h, with daily parasite counts performed using a Neubauer chamber. The median inhibitory concentration (IC50) was determined after 72 h by linear regression using SPSS 25.0 software for Mac. All assays were performed in 24-well flat-bottom plates (2 mL final volume per well), with parasite inoculum verified by Neubauer counting chamber. The compounds LT-73 and LT-75 were selected based on their best leishmanicidal performance and respective selectivity index (SI), calculated as the ratio between the cytotoxic concentration for 50% of host cells (CC50) and the IC50 obtained for parasites. […] IC50 and CC50 values were obtained by linear regression using […]. This method has been validated in our previous thiosemicarbazone publications. Each assay was conducted in triplicate across two independent biological experiments performed on separate days to ensure reproducibility and minimize batch effects. MTT was selected for consistency with the validated thiosemicarbazone protocol by Jacob et al., ensuring methodological coherence with prior data.

Data set [3] deals with J774.A1 macrophages. Further details: method as in PMID 33590474. As to conditions: highest concentration tested 75 µM, previously determined in collaboration with Jacob et al., ref [20]; cited from earlier work.
The subject of data set [4] is axenic amastigote forms of Leishmania amazonensis. Further details: method as in ref [22] Oliveira et al. The following applies: ref [22] Oliveira et al.; cited from earlier work.
Data set [5] deals with Leishmania infantum. Further details: method as in PMID 35861942, PMID 14982775. The following applies: against Leishmania infantum, similar in vitro conditions; ref [25],[29]; cited from earlier work.

With `OO` [Hydrogen Peroxide (H2O2), Hydrogen peroxide, reference compound], in data set [1] (positive control, H2O2 at 1 μM), the “Mean (Rho 123 fluorescence)” value is given as 581 ± 35 and the “Variation (Variation Index, VI = (MT − MC)/MC)” value was −0.18 ± 0.08. Further, the “Variability Index (VI), range” value in data set [1] (range over the tested concentrations (1× and 2× IC50; H2O2 control)) is given as −0.018 to −0.73.
A word on the IC50: it is the concentration needed to halve the response being measured. What is called inhibition is how much of the control response was suppressed. The low end stands for a response near the control, the high end for a response far below the control. On to `N#Cc1ccc2[nH]cc(/C=N/NC(=S)Nc3ccccc3)c2c1` [LT-70], for which, in data set [2], the IC50 was below 20 µM and 20 µM produced 100% inhibition. For the same compound, in data set [3], the CC50 is 64 ± 5 µM.
Regarding `C=CCNC(=S)N/N=C\c1c[nH]c2c(C)cccc12` [LT-89], the “SI (CC50/IC50)” value in data set [2] (CC50 J774 macrophages / IC50 promastigotes) is reported as 4.3. In data set [2], this compound registered an IC50 below 20 µM and an inhibition at 20 µM of 100%. In addition, in data set [3], the CC50 was 60 ± 4 µM.
For `CC(C)[C@H](NC(=O)OCc1ccccc1)C(=O)N[C@H](C=O)Cc1ccccc1` [MDL28170] (Cbz-Val-Phe-aldehyde), the IC50 in data set [4] is 13.5 µM.
In the case of `CCCCCCCCCCCCCCCCOP(=O)([O-])OCC[N+](C)(C)C` [miltefosine], the IC50 in data set [5] was 8 to 12 µM.

The values are drawn from article PMC12656565, “In Vitro and Ultrastructural Evaluation of the Cytotoxic and Antileishmanial Activities of Thiosemicarbazone Compounds Against Promastigotes and Axenic Amastigotes of Leishmania infantum” (Tropical Medicine and Infectious Disease, 2025).
